# Read-outs that look alike come from different tables or passages of the source.
# Tests used:
# [1] = test system: human breast cancer cells MCF7; assay: Cell proliferation assay (CCK-8); format: cell-based; conditions: Homo sapiens, MCF7, 72 h
# Source text: (§1) CCK-8 method: The CCK-8 method is a highly sensitive, non-radioactive colorimetric assay for the determination of the number of viable cells in cell proliferation or cytotoxicity assays. The orange formazan dye produced by the bioreduction of CCK-8 by intracellular dehydrogenase is soluble in the cell culture medium, and the amount of formazan dye produced is proportional to the number of living cells. The kit used in this method is the tetrazolium salt-WST-8 (2-(2-methoxy-4-nitrophenyl)-3-(4-nitrophenyl)-5-(2,4-disulfophenyl)-2H-tetrazolium monosodium salt) developed by Dojindo Chemical Research Institute (Dojindo), which is capable of being reduced to a water-soluble formazan dye in the presence of the electronic carrier 1-Methoxy PMS.
# (§2) Human cervical cancer cells Hela, pancreatic cancer cells PANC-1, esophageal cancer cells Eca-109, human leukemia cells K562, human lung cancer cells A549, human liver cancer cells HepG2, human gastric cancer cells MKN-45, human breast cancer cells MCF7 were cultured in DMEM medium containing 10% FBS (fetal bovine serum), 100 U/mL penicillin and 100 μg/ml streptomycin. Hepatocellular carcinoma cells Bel-7402 were cultured in RPMI-1640 medium containing 10% FBS (fetal bovine serum), 100 U/ml penicillin and 100 μg/ml streptomycin. All cells were placed in a cell culture incubator at 37° C. with 5% CO2. Cells fluid was changed every 3-5 days, and after 80% cell fusion, trypsin digestion and passaging were performed to keep the cells in good logarithmic growth phase.
# (§3) All the samples to be tested were dissolved in DMSO.
# (§4) Cells in logarithmic growth phase were inoculated in 96-well plates with 5000 cells/well respectively, and after 24 h of incubation, samples were added (final concentrations as shown in the table), and biplicate wells were set up for each sample. The amount of solvent of DMSO was not higher than 2‰. After 72 h, 10 μL of CCK-8 solution was added to each well and incubated for 1.5˜3 h at 37° C. The OD value at 450 nm was measured on an plate reader. Inhibition rate (%)=(1−[(OD450 dosed well−OD450 blank well)/(OD450 control well−OD450 blank well)])×100%
# (§5) The fitted IC50 values were calculated using the log (inhibitor) vs. response—Variable slop analysis method in GraphPad Prism software.
# [2] = test system: human leukemia cells K562; assay: Cell proliferation assay (CCK-8); format: cell-based; conditions: Homo sapiens, K562, 72 h
# Source text: as §1, §2, §3, §4, §5
# [3] = test system: human liver cancer cells HepG2; assay: Cell proliferation assay (CCK-8); format: cell-based; conditions: Homo sapiens, HepG2, 72 h
# Source text: as §1, §2, §3, §4, §5
# [4] = test system: Human cervical cancer cells Hela; assay: Cell proliferation assay (CCK-8); format: cell-based; conditions: Homo sapiens, 72 h
# Source text: as §1, §2, §3, §4, §5
# [5] = test system: human gastric cancer cells MKN-45; assay: Cell proliferation assay (CCK-8); format: cell-based; conditions: Homo sapiens, MKN-45, 72 h
# Source text: as §1, §2, §3, §4, §5
# [6] = test system: human lung cancer cells A549; assay: Cell proliferation assay (CCK-8); format: cell-based; conditions: Homo sapiens, A549, 72 h
# Source text: as §1, §2, §3, §4, §5
# [7] = test system: esophageal cancer cells Eca-109; assay: Cell proliferation assay (CCK-8); format: cell-based, human; conditions: Homo sapiens, Eca-109, 72 h
# Source text: as §1, §2, §3, §4, §5
# [8] = test system: pancreatic cancer cells PANC-1; assay: Cell proliferation assay (CCK-8); format: cell-based, human; conditions: Homo sapiens, PANC-1, 72 h
# Source text: as §1, §2, §3, §4, §5
# [9] = Solubility test (shake 37° C., 24 h, HPLC); format: physicochemical; conditions: thermodynamic from solid, x ± s
# Description: The term “solubility” refers to the mass of solute dissolved when a solid substance reaches saturation state in 100 g solvent at a certain temperature. Solubility test refer to the following references: ZHU Shang-bin, et al. Preparation, characterization, and physicochemical properties of arbutin phospholipid complex[J]. Chinese Traditional and Herbal Drugs. 2020, 1-10.
# Methods: Excess BFA and the compounds disclosed herein were added to 10 mL of three solvents, methanol, acetone and 5% DMSO+95% H2O, respectively, and shaken on a shaker at 37° C. at 100 r/min for 24 h. After 24 h, the samples were centrifuged at 15 000 r/min for 15 min to remove the undissolved compounds. The supernatant was filtered using a 0.45 μm membrane filter. The supernatant was appropriately diluted with methanol and contents of the compounds were determined by HPLC method to calculate the solubility.
# [10] = Pharmacokinetic evaluation (plasma BFA by LC/MS/MS); format: in vivo, SD rats; conditions: rat, in vivo, 40 mg/kg
# Description: SD rats were weighed after an overnight fasting of 15 hours and randomly grouped according to weights. The appropriate amount of the compound was accurately weighed, and a final volume of 5% DMSO, 10% Solutol, and 85% Saline was added and vortexed or sonicated to make a thorough mixing to provide a 4 mg/mL solution for intravenous administration (iv.). Venous blood was taken at the time points of 0, 0.083 (iv. group only), 0.25, 0.5, 1.0, 2.0, 5.0, 7.0 and 24 h, via jugular vein or other suitable means, with approximately 0.20 mL of each sample collected, anticoagulated with sodium heparin (with 6.25 μL of 200 mM DDVP/tube added), and placed on ice after collection. The plasma was separated by centrifugation within 2 hours (centrifugal force 6800 g, 6 min, 2-8° C.). The collected plasma samples were stored in a −70° C. refrigerator before analysis, and the remaining plasma samples after analysis were kept stored at −20° C. or −70° C. until LC/MS/MS analysis was performed. The accuracy of QC samples was evaluated while analyzing the samples, and more than 66% of the QC samples were required to have an accuracy between 80-120%. When plasma drug concentration-time curves were plotted, BLQ were recorded as 0. For the calculation of pharmacokinetic parameters, the concentration before dosing was counted as 0; BLQ before Cmax (including “No peak”) was counted as 0; BLQ after Cmax (including “No peak”) was not included in the calculation. Pharmacokinetic parameters such as AUC(0-t), T1/2, Cmax, Tmax and MRT were calculated according to the blood concentration data of BFA at different time points using WinNonlin.
# [11] = aqueous with cosolvent or surfactant or cyclodextrin, 5% DMSO + 95% H2O, n = 3, read-out: Solubility, 5% DMSO + 95% H2O
# [12] = organic solvent or mixture, acetone, n = 3, read-out: Solubility, Acetone
# [13] = organic solvent or mixture, methanol, n = 3, read-out: Solubility, Methanol
SMILES,IC50 [1] [nM],IC50 [2] [nM],IC50 [3] [nM],IC50 [4] [nM],IC50 [5] [nM],IC50 [6] [nM],IC50 [7] [nM],IC50 [8] [nM],"solubility at 24 h [9, 11] [µg/mL]","solubility at 24 h [9, 12] [µg/mL]","solubility at 24 h [9, 13] [µg/mL]",Blood concentrations detected within 1 h [10],Drug in blood after 1 h [10]
Cc1ccc(COC(=O)O[C@@H]2C[C@H]3[C@H](O)/C=C/C(=O)O[C@@H](C)CCC/C=C/[C@@H]3C2)cn1 [Compound 7],100 to 1000,100 to 1000,100 to 1000,100 to 1000,100 to 1000,100 to 1000,100 to 1000,100 to 1000,–,–,–,–,–
"COc1cccc2c1C(=O)c1c(O)c3c(c(O)c1C2=O)C[C@@](O)(C(=O)CO)C[C@@H]3O[C@H]1C[C@H](N)[C@H](O)[C@H](C)O1 [Adriamycin, reference compound]",1000 to 10000,1000 to 10000,> 10000,100 to 1000,100 to 1000,100 to 1000,100 to 1000,< 100,–,–,–,–,–
"C[C@H]1CCC/C=C/[C@@H]2C[C@H](OC(=O)OCCc3ccccc3)C[C@H]2[C@H](O)/C=C/C(=O)O1 [Compound A, reference compound]",1000 to 10000,100 to 1000,100 to 1000,1000 to 10000,1000 to 10000,100 to 1000,100 to 1000,1000 to 10000,250 ± 130,9360 ± 1260,9930 ± 1210,–,–
"C[C@H]1CCC/C=C/[C@@H]2C[C@H](OC(=O)OCc3cccc(F)c3)C[C@H]2[C@H](O)/C=C/C(=O)O1 [Compound B, reference compound]",100 to 1000,1000 to 10000,100 to 1000,1000 to 10000,1000 to 10000,1000 to 10000,100 to 1000,100 to 1000,260 ± 160,9550 ± 1230,9760 ± 1210,–,–
"COC(=O)O[C@@H]1C[C@H]2[C@H](O)/C=C/C(=O)O[C@@H](C)CCC/C=C/[C@@H]2C1 [Compound C, reference compound]",100 to 1000,100 to 1000,100 to 1000,1000 to 10000,1000 to 10000,100 to 1000,1000 to 10000,100 to 1000,250 ± 230,9260 ± 1130,9440 ± 1510,–,–
"C[C@H]1CCC/C=C/[C@@H]2C[C@H](OC(=O)OCc3cncc(F)c3)C[C@H]2[C@H](O)/C=C/C(=O)O1 [Compound 4, BFA-7-(5-fluoro-pyridine-3-ylmethyl)carbonate]",100 to 1000,100 to 1000,100 to 1000,< 100,100 to 1000,100 to 1000,100 to 1000,< 100,2720 ± 330,63800 ± 3530,69400 ± 3510,–,–

# Next, values leading:
IC50 [1] [nM],IC50 [2] [nM],IC50 [3] [nM],IC50 [4] [nM],IC50 [5] [nM],IC50 [6] [nM],IC50 [7] [nM],IC50 [8] [nM],"solubility at 24 h [9, 11] [µg/mL]","solubility at 24 h [9, 12] [µg/mL]","solubility at 24 h [9, 13] [µg/mL]",Blood concentrations detected within 1 h [10],Drug in blood after 1 h [10],SMILES
100 to 1000,100 to 1000,100 to 1000,100 to 1000,< 100,100 to 1000,< 100,100 to 1000,–,–,–,–,–,C[C@H]1CCC/C=C/[C@@H]2C[C@H](OC(=O)OCc3ccc(N)nc3)C[C@H]2[C@H](O)/C=C/C(=O)O1 [Compound 5]
100 to 1000,100 to 1000,100 to 1000,< 100,100 to 1000,100 to 1000,100 to 1000,100 to 1000,2480 ± 1550,69400 ± 2230,73300 ± 3520,–,–,"C[C@H]1CCC/C=C/[C@@H]2C[C@H](OC(=O)OCc3ccccn3)C[C@H]2[C@H](O)/C=C/C(=O)O1 [Compound 2, BFA-7-(pyridine-2-ylmethyl)carbonate]"
100 to 1000,100 to 1000,100 to 1000,100 to 1000,100 to 1000,100 to 1000,< 100,100 to 1000,–,–,–,–,–,C[C@H]1CCC/C=C/[C@@H]2C[C@H](OC(=O)OCCCc3cccnc3)C[C@H]2[C@H](O)/C=C/C(=O)O1 [Compound 10]
100 to 1000,100 to 1000,100 to 1000,< 100,100 to 1000,< 100,100 to 1000,100 to 1000,2700 ± 770,68800 ± 2530,69000 ± 1810,–,–,"C[C@H]1CCC/C=C/[C@@H]2C[C@H](OC(=O)OCCc3cccnc3)C[C@H]2[C@H](O)/C=C/C(=O)O1 [Compound 9, BFA-7-(pyridine-3-ylethyl)carbonate]"
100 to 1000,100 to 1000,100 to 1000,1000 to 10000,1000 to 10000,100 to 1000,100 to 1000,100 to 1000,–,–,–,–,–,C[C@H]1CCC/C=C/[C@@H]2C[C@H](OC(=O)OCc3ccc(N4CCCCC4)nc3)C[C@H]2[C@H](O)/C=C/C(=O)O1 [Compound 8]
< 100,100 to 1000,100 to 1000,100 to 1000,< 100,100 to 1000,100 to 1000,100 to 1000,2650 ± 1600,69600 ± 1740,70300 ± 4350,–,–,"C[C@H]1CCC/C=C/[C@@H]2C[C@H](OC(=O)OCc3ccncc3)C[C@H]2[C@H](O)/C=C/C(=O)O1 [Compound 3, BFA-7-(pyridine-4-ylmethyl)carbonate]"
100 to 1000,100 to 1000,< 100,100 to 1000,100 to 1000,100 to 1000,100 to 1000,100 to 1000,–,–,–,–,–,C[C@H]1CCC/C=C/[C@@H]2C[C@H](OC(=O)OCc3cncc4ccccc34)C[C@H]2[C@H](O)/C=C/C(=O)O1 [Compound 12]
100 to 1000,100 to 1000,1000 to 10000,1000 to 10000,1000 to 10000,100 to 1000,1000 to 10000,1000 to 10000,510 ± 130,21200 ± 1120,20400 ± 1410,low blood concentrations,basically undetectable,"C[C@H]1CCC/C=C/[C@@H]2C[C@H](OC(=O)OCc3cccnc3)C[C@H]2[C@H](OC(=O)OCc2cccnc2)/C=C/C(=O)O1 [Compound D, reference compound]"

# Source: US12522590B2, “Brefeldin a derivatives, preparation method and use thereof” (OCEAN UNIVERSITY OF CHINA, priority 2019, dated 2026)
